Measured values: article PMC8878107, “Human Enterovirus B: Selective Inhibition by Quinoxaline Derivatives and Bioinformatic RNA-Motif Identification as New Targets” (Pharmaceuticals, 2022)

Assays:
[1] = tested on: CVB3; test: Adsorption assay, CVB3 in Vero-76 cells; format: cell-based, human enterovirus B; conditions: 20 µM, 2 h at 4 °C, m.o.i. 0.1, Vero-76 cells
Protocol: (§1) Vero-76 cells were incubated with CVB3 and CVB4 (m.o.i. = 0.1) and derivatives 6 or 7 for 2 h at 4 °C, using compound concentrations of 20 µM. […] LLC-MK2 cells were incubated with E9 and derivative 8 (Figure 3e) under the above-described experimental conditions. To identify the replication stage inhibited by quinoxaline derivatives, we performed a time-of-drug addiction assay (T.O.A.) (Figure 3a–e). Experiments were carried out on CVB3-, CVB4-,and E9-infected cells (m.o.i. = 1) treated with compounds (20 µM) at different step times of infection until 12 h post-infection, followed by virus titer determination by plaque assay.
(§2) Vero-76 and LLC-MK2 cells grown in 24-well plates were infected with CVB3, CVB4, and E9, at an m.o.i. of 0.1, with or without test compounds, and incubated for 120 min at 4 °C. Medium containing unbound virus was then removed, and cells were washed twice with PBS and overlayed with fresh medium. Plaques were counted after 72 h of incubation at 37 °C.

[2] = tested on: CVB4; test: Plaque-reduction assay, CVB4 in Vero-76 cells; format: cell-based, human enterovirus B
Protocol: (§3) The activity of compounds against EV-A71 and D68 was based on inhibition of virus-induced cytopathogenicity in HeLa and Vero-76 cells, respectively, acutely infected at a multiplicity of infection (m.o.i.) of 0.01. After a 72 or 120 h incubation at 37 °C, cell viability was verified by the MTT method, as previously described. The activity of compounds against CVB3, CVB4, CVB5, and E9 was determined in infected cell monolayers by plaque-reduction assays, as previously reported. Briefly, the monolayer of Vero-76 cells or LLC-MK2 (E9) was grown overnight on a 24-well plate. The cells were then infected for 2 h with 250 μL of proper virus dilutions to obtain 50–100 PFU/well. Following removal of the unadsorbed virus, 500 μL of the medium (D-MEM with L-glutamine, 4500 mg/L D-glucose, and 1% inactivated FBS) containing 0.75% methyl-cellulose, with serial dilutions of quinoxalines, was added. The overlay was also added to untreated wells (non-infection controls). Cultures were incubated at 37 °C for 3 (CVB3, CVB4, CVB5) or 5 days (E9) and then fixed with PBS containing 50% ethanol and 0.8% crystal violet, washed and air-dried. Plaques were then counted.
(§4) The size of cell growth/viability and viral multiplication at each tested drug concentration was expressed as percentage of untreated controls. Concentrations resulting in 50% inhibition (CC50 or EC50) were determined by linear regression analysis.

[3] = tested on: EV-A71; test: Inhibition of EV-A71-induced cytopathogenicity, MTT method; format: cell-based, human enterovirus A71; conditions: Enterovirus A, EVA71, 96 h, 50% protection of Vero-76 cells from EV-A71-induced cytopathogenicity, day 4/5 p.i.
[4] = Cytotoxicity, MTT method, mock-infected HeLa cells; format: cell-based; conditions: human, concentration reducing viability of mock-infected HeLa cells by 50%
Protocol: (§5) HeLa cells were seeded in 96-well plates at a density of 5 × 10^5 cells/mL, in minimum essential medium with Earle’s salts (MEM-E), L-glutamine, 1 mM sodium pyruvate, and 25 mg/L kanamycin, supplemented with 10% fetal bovine serum (FBS). Vero-76 and LLC-MK2 cells were seeded in 96-well plates at a density of 5 × 10^5 cells/mL in Dulbecco’s modified eagle medium (D-MEM) with L-glutamine and 25 mg/L kanamycin, complemented with 10% FBS. Cell cultures were then incubated in a humidified, 5% CO2 atmosphere at 37 °C, with or without serial dilutions of analyzed compounds. The medium used for the cytotoxic assay, as well as for antiviral assays, included 1% of the proper serum. Cell viability was determined after 72–120h at 37 °C by MTT method.
as §4

[5] = Cytotoxicity, MTT method, mock-infected Vero-76 cells; format: cell-based; conditions: African green monkey (Cercopithecus aethiops), concentration reducing viability of mock-infected Vero-76 cells by 50%, read-out: CC50 Vero76
Protocol: as §5, §4

[6] = tested on: CVB4; test: Adsorption assay, CVB4 in Vero-76 cells; format: cell-based, human enterovirus B; conditions: 20 µM, 2 h at 4 °C, m.o.i. 0.1, Vero-76 cells
Protocol: as §1, §2

[7] = tested on: CVB4; test: Virus yield reduction assay (YRA), CVB4 in Vero-76 cells; format: cell-based, human enterovirus B; conditions: m.o.i. 0.1, 72 h
Protocol: (§6) Vero-76 and LL-MKC cells were inoculated with CVB3, CVB4, or E9 at an m.o.i. of 0.1 in maintenance medium and compounds at non-cytotoxic concentrations. After the adsorption period (2 h) at 37 °C and 5% CO2, the inoculum was removed and replaced with fresh medium containing the same concentration of compounds. After 72 h for CVB3 and CVB4 or 120 h for E9 at 37 °C and 5% CO2, each sample was collected and diluted with serial passages, starting from 10^−1, up to 10^−10. The titers of the supernatants were quantified by standard plaque assay. NM 107 (2’-C-Methyl-Cytidine) and pleconaril were employed as reference compounds.

[8] = Cytotoxicity, MTT method, mock-infected LLC-MK2 cells; format: cell-based; conditions: rhesus monkey, concentration reducing viability of mock-infected LLC-MK2 cells by 50%
Protocol: as §5, §4

[9] = tested on: CVB3; test: Virus yield reduction assay (YRA), CVB3 in Vero-76 cells; format: cell-based, human enterovirus B; conditions: m.o.i. 0.1, 72 h; for Reduction of CVB3 viral titers (trend over concentrations): non-cytotoxic concentrations (100, 20, 4, 0.8 µM)
Protocol: as §6

[10] = tested on: EV-D68; test: Inhibition of EV-D68-induced cytopathogenicity, MTT method; format: cell-based, human enterovirus D 68; conditions: Enterovirus D, EVD68, 72 h; HeLa cells, MTT method after 3 days p.i.
Protocol: as §3, with “After” for “The activity of compounds against EV-A71 and D68 was based on inhibition of virus-induced cytopathogenicity in HeLa and Vero-76 cells, respectively, acutely infected at a multiplicity of infection (m.o.i.) of 0.01. After”
as §4

[11] = tested on: CVB3; test: Plaque-reduction assay, CVB3 in Vero-76 cells; format: cell-based, human enterovirus B
Protocol: as §3, §4

[12] = tested on: E9; test: Plaque-reduction assay, E9 in LLC-MK2 cells; format: cell-based, human enterovirus B; conditions: Enterovirus B; for EC50: concentration reducing plaque number by 50%
Protocol: as §3, §4

[13] = tested on: E9; test: Virus yield reduction assay (YRA), E9 in LLC-MK2 cells; format: cell-based, human enterovirus B
Protocol: as §6

[14] = Enterovirus B, CVB4, Vero 76, concentration reducing plaque number by 50%
[15] = Enterovirus B, CVB4, Vero 76, concentration reducing plaque number by 90%
[16] = Enterovirus B, CVB3, Vero 76, concentration reducing plaque number by 50%
[17] = Enterovirus B, CVB3, Vero 76, concentration reducing plaque number by 90%
[18] = concentration reducing plaque number by 50%
[19] = concentration reducing plaque number by 90%

EC50 [2, 14] [µM] | EC90 [2, 15] [µM] | EC50 [11, 16] [µM] | EC90 [11, 17] [µM] | EC50 [11, 18] [µM] | EC50 [12] [µM] | SMILES | CVB3 virus titer in comparison to the untreated infected control [1] | EC50 [3] [µM] | CC50 [4] [µM] | CC50 [5] [µM] | CVB4 virus titer in comparison to the untreated infected control [6] | CC50 [8] [µM] | Reduction of CVB3 viral titers (trend over concentrations) [9] | EC50 [10] [µM] | further results
1.7 | 12 | 2 to 3 | 12 | 2.5 | > 100 | CCOC(=O)c1ccc(SCc2ccc3nc(OC)c(OC)nc3c2)cc1 [Compound 6] | detectable reduction of the virus titer | > 100 | > 100 | > 100 | detectable reduction of the virus titer | > 100 | same trend of reduction in viral loads | > 100 | Reduction of CVB4 viral titers ([7]; 0.8 µM): 2 logs; Reduction of CVB4 viral titers ([7]; 4 µM): 2.5 logs; Effect on CVB4 viral titers ([7]; 100 and 20 µM): complete suppression; EC90 [11, 19]: 13 µM
1.5 | 3 | 2 to 3 | 14 | 2 | > 100 | COc1nc2ccc(CSc3ccc(C(=O)O)cc3)cc2nc1OC [Compound 7] | detectable reduction of the virus titer | > 100 | 95 | 100 | detectable reduction of the virus titer | 100 | dose-dependent reduction of viral titers | > 95 | EC50 [2, 18]: 1.45 µM; EC90 [2, 19]: 3.2 µM; Inhibition of CVB4 ([7]; 0.8 µM): no significant inhibition; Production of CVB4 virus ([7]; 100, 20, and 4 µM): completely inhibited; Reduction in CVB3 viral load ([9]; 4 µM): one log reduction in viral load
> 100 | – | > 100 | – | – | 6 | CCOC(=O)c1ccc(SCc2ccc3nc(OC)c(OC)nc3c2)nc1 [Compound 8] | – | > 100 | > 100 | > 100 | – | > 100 | – | 50 | Effect on E9 viral replication ([13]; 100 and 20 µM, m.o.i. 0.1, 120 h): completely suppressed viral replication; Reduction in E9 viral loads ([13]; lower concentrations (below 20 µM)): no reduction in viral loads; EC90 [12, 19]: 16 µM
> 100 | – | 100 | – | – | 55 | COc1nc2ccc(CSc3ccc(C(=O)O)cn3)cc2nc1OC [Compound 9] | – | > 100 | > 100 | 100 | – | 100 | – | 70 | –
– | – | 29 ± 3 | – | – | – | C[C@@]1(O)[C@H](O)[C@@H](CO)O[C@H]1n1ccc(N)nc1=O [NM107, 2′-C-methylcytidine, reference compound] | – | 6 ± 1 | – | > 100 | – | – | – | – | –
2 ± 1 | – | – | – | – | 0.1 ± 0.05 | Cc1cc(CCCOc2c(C)cc(-c3noc(C(F)(F)F)n3)cc2C)on1 [PLe, Pleconaril, reference compound] | – | – | > 100 | > 100 | – | > 100 | – | 0.4 ± 0.2 | –
